Tested on: CLL cells
Experiment: CLL apoptosis by PARP cleavage
Assay type: cell-based, human
Conditions: 6 hours; for PARP cleavage in CLL cells compared with SFZ: 0.5 mM, three patient samples
Procedure: CLL apoptosis was quantified by analysing PARP which is cleaved by effector caspases during apoptosis. CLL cells isolated from three individual patients were recovered from storage in liquid nitrogen and cultured at a density of 1.25×10^6 cells in 1 ml of growth medium (RPMI 1640, 10% (v/v) FCS and antibiotics). After 1 hour, […] were treated with compounds. Cells were harvested 6 hours after addition of compound, resuspended in 1×SDS-PAGE sample buffer and sonicated prior to immunoblot analysis for PARP expression as described below. PARP cleavage was quantified by determining the amount of cleaved PARP as a percentage of total PARP expression by digital image analysis.
The ability of SFZ and the analogues to induce CLL apoptosis was analysed. CLL cells from 3 individual patients were treated with SFZ for 6 hours and apoptosis was quantified by analysing PARP cleavage. […] The amount of apoptosis induced by SFZ and compounds 3a and 3f (at 0.5 mM) was compared.
(A) CLL cells from three different patients were cultured in the presence of SFZ or compounds 3a and 3f (all at 0.5 mM), or DMSO as a solvent control. After 6 hours, the degree of PARP cleavage was determined as a measure of apoptosis. […] Note that compound 3f was not tested in cells from patient 3. (B) HSC were cultured in the presence of SFZ (1 mM), compounds 3a (0.150 mM), 3e (0.127 mM), 3f (0.089 mM), or DMSO as a solvent control. Analogues were used at the concentration that gave 50% inhibition of NF-kB transcriptional activity in U937 cells. After 20 hours, the proportion of apoptotic cells were visualised by acridine orange staining. Apoptotic cells were counted in five fields in duplicate for each concentration, in two independent experiments and results expressed as mean ±SEM,

SMILES | PARP cleavage in CLL cells compared with SFZ | induction of apoptosis (PARP cleavage) in CLL cells (cells from 3 patients, dose response)
COc1ccc(CNS(=O)(=O)c2ccc(/N=N/c3ccc(O)c(C(=O)O)c3)cc2)cc1 [Compound 3a, 2-hydroxy-5-[4-(4-methoxy-benzylsulfamoyl)-phenylazo]-benzoic acid] | induced more PARP cleavage than SFZ | 
O=C(O)c1cc(/N=N/c2ccc(S(=O)(=O)NCc3ccc(C(F)(F)F)cc3)cc2)ccc1O [Compound 3f, 2-hydroxy-5-[4-(4-trifluoromethyl-benzylsulfamoyl)-phenylazo]-benzoic acid] | induced more PARP cleavage than SFZ | 
O=C(O)c1cc(/N=N/c2ccc(S(=O)(=O)Nc3ccccn3)cc2)ccc1O [SFZ, Sulfasalazine, reference compound] |  | induced dose dependent apoptosis

Source: patent US20080090788A1, “Chemical Compounds” (priority 2005, published 2008)
